Laboratory results as given in PubChem BioAssay AID2384 (Southern Research Specialized Biocontainment Screening …, 2010).

test system: S. typhi GFP reporter counter-screen, fluorescence, 4 h; assay: S. typhi counter-screen signal inhibition – fluorescence, 4 h, counter-screen for PhoP regulon inhibitor project, dose response (AID 2384)

Row | SMILES | IC50
1 | COc1cccc(Nc2nc(NCCO)c3ccccc3n2)c1 | 57.8 µM
2 | C/C(=N\NC(=O)c1cccc(Br)c1)c1ccccn1 | 31.6 µM
3 | COc1ccc(NC2=NC3(CCCCC3)N=C(N)N2)cc1 | 138 µM
4 | OC(c1cc(C(F)(F)F)nc2c(C(F)(F)F)cccc12)C1CCCCN1 (stereo not drawn) | 19.1 µM
5 | COc1cc2c3cc1Oc1cc(ccc1O)C[C@@H]1c4c(cc(OC)c(O)c4Oc4ccc(cc4)C[C@H]3N(C)CC2)CCN1C | 93.4 µM
6 | Cc1ccc2nc(/C(C#N)=C\c3ccc([N+](=O)[O-])o3)[nH]c2c1 | 95.9 µM
7 | CC(Oc1ccc(Br)cc1)c1nc2c3ccccc3nc(=S)n2[nH]1 (stereo not drawn) | 139 µM
8 | N=c1c2c(n(Cc3ccc(Cl)cc3)c3c1CCC3)CCC2 | 79.7 µM
9 | Cc1nc(N)c(Cc2ccc(Cl)cc2Cl)c(N)n1 | 30.4 µM
10 | O=[N+]([O-])c1cccc2c(N3CCCC3)ccnc12 | 32.8 µM
11 | Nc1c2ccccc2nc2ccccc12 | 39.5 µM
12 | O=C(/C=C/c1cc(Br)ccc1O)c1ccco1 | 52.5 µM
13 | O=c1[nH]cc(N=Cc2cc([N+](=O)[O-])ccc2O)c(=O)[nH]1 | 77.8 µM
14 | Cc1ccc2cc(CN(CCN(C)C)C(=O)Nc3ccc(Cl)cc3)c(=O)[nH]c2c1 | 50.3 µM
15 | CCCCCC[N+](C)(C)CC/C=C1/c2ccccc2Sc2ccc(Cl)cc21 | 26.2 µM
16 | COc1ccc(CCN2CCC(Nc3nc4ccccc4n3Cc3ccc(F)cc3)CC2)cc1 | 29.4 µM
17 | CCCCCCOc1ccc(CN2CCN(CC)CC2)cc1 | 100 µM
18 | CC(=O)Nc1ccc(S(=O)(=O)NNc2cccc(C)c2)cc1 | 27.5 µM
19 | COc1ccc(Nc2c3c(nc4ccccc24)CCC3)cc1 | 113 µM
20 | OCCNc1nc(Nc2ccccc2)nc2ccccc12 | 22.4 µM
21 | Oc1c(Br)cc(Br)cc1C=Nc1cccc2ncccc12 | 21.8 µM
22 | CC(C)Oc1ccc(Cc2cnc(N)nc2N)cc1 | 33.3 µM
23 | NC(=O)SCC(=O)Nc1ccc(Cl)cc1 | 46.2 µM
24 | C#CCOCCOCCOCCNc1nc(N2CCN(C(=O)[C@H](Cc3cc4ccccc4[nH]3)n3cc([C@@H](N)C(C)CC)nn3)CC2)nc(N2CCN(C(=O)[C@H](Cc3cc4ccccc4[nH]3)n3cc([C@@H](N)CC(C)C)nn3)CC2)n1 (stereo partly drawn) | 24.1 µM

Row | SMILES | IC50
25 | Oc1c(CN2CCOCC2)cc(COCc2ccccc2)c2cccnc12 | 36 µM
26 | N/C(=N\OS(=O)(=O)c1ccccc1)c1cccnc1 | 12.4 µM
27 | CC(=O)c1cc(O)c2ccccc2c1O | 107 µM
28 | CCC(C)(C)c1ccc(OCCCC[n+]2ccccc2)c(C(C)(C)CC)c1 | 35.3 µM
29 | Cc1ccc(CC(=O)Nc2ncc([N+](=O)[O-])s2)cc1 | 78.5 µM
30 | CCN(CCNCC(O)COc1ccccc1C(C)C)c1cccc(C)c1 (stereo not drawn) | 37.7 µM
31 | NC1CCN(c2c(F)cc3c(=O)c(C(=O)O)cn(C4CC4)c3c2Cl)C1 (stereo not drawn) | < 0.55 µM
32 | Cc1cc(CSC(=N)N)c(CSC(=N)N)cc1C | 50.1 µM
33 | C#CCOCCOCCOCCNc1nc(N2CCN(C(=O)CCCCCCCCCCNC(=O)[C@H](CCCCN)n3cc(C)nn3)CC2)nc(N2CCN(C(=O)CCCCCCCCCCNC(=O)[C@H](CO)n3cc(CCCSC)nn3)CC2)n1 | 130 µM
34 | S=C(NCc1ccc(Cl)cc1)Nc1ccncc1 | 35 µM
35 | Cc1cc([N+](=O)[O-])nn1CC(=O)N/N=C/c1ccccc1O | 35.3 µM
36 | O=C(N/N=C/c1ccc(O)c(O)c1)C1c2ccccc2Oc2ccccc21 | 64.8 µM
37 | O=C(CCc1ccccc1)NNC(=O)c1ccccn1 | 57.8 µM
38 | C/C=C/c1ccc(OCc2cc(=O)n3cc(C)ccc3n2)c(OC)c1 | 74.7 µM
39 | Cc1ccc(C(=O)N/N=C\c2sccc2C)cn1 | 136 µM
40 | Cc1ccc2c(c1)c1c(n2CC(O)CNC2CCCCC2)CCCC1 (stereo not drawn) | 87.1 µM
41 | CCCCCCCCCCCCCCCC[N+](C)(C)CC | 19.3 µM
42 | O=C(Nc1c(Cl)ccc2nsnc12)c1ccc([N+](=O)[O-])o1 | 137 µM
43 | O=C(N/N=C/c1ccccc1O)C1SCCCS1 | 72.9 µM
44 | CN(C)C1C(=O)C(C(N)=O)=C(O)C2(O)C(=O)C3=C(O)c4c(O)cccc4C(C)(O)C3C(O)C12 (stereo not drawn) | 0.83 µM
45 | CN(C)c1ccc2nc3ccc(=[N+](C)C)cc-3sc2c1 | 45.3 µM
46 | O=C(NNC(=S)NC(=O)c1ccccc1)c1ccc(O)cc1 | 51 µM
47 | CCOc1ccc(Nc2nc(NCC3CCCO3)c3ccccc3n2)cc1 (stereo not drawn) | 19.6 µM
48 | Cc1ccc(NC(=O)c2ccc([N+](=O)[O-])o2)c(C)c1 | 67.9 µM
